Measurements published in patent US20240315994A1, “SMALL MOLECULE MODULATORS OF FERROPTOSIS” (ARPEGGIO BIOSCIENCES, INC., priority 2021, published 2024).

Experiments:
[1] = test system: HT1080 cells (ATCC, cat #CCL-121); assay: HT1080 CellTiter-Glo 2.0 IC50 assay of working examples; format: cell-based; conditions: HT-1080, 24 hrs, cells plated with and without 1.5 μM ferrostatin-1, table does not say which, Table 8
Method: Biological evaluation of working examples A1-A47 and B1-B28 was performed in HT1080 cells (ATCC, cat #CCL-121) according to the procedure provided below.
• 1.1 Cells were harvested from flask into cell culture medium and then the cell number count was determined. • 1.2 The cells were suspended with 1.5 μM ferrostatin-1 and without ferrostatin-1. • 1.3 Cells were plated at a density of 1,500 cells per well in a 384-well black sided clear bottom plate, in 25 μL, using electronic multichannel pipette. • 1.4 Plates were covered with lid and spun for 1 min at 1000 rpm, then allowed to incubate overnight at 37° C. under 5% CO2.
• 2.1 Compounds were dissolved at 10 mM stock solution and 10 μl of diluted solution was transferred to a 384 LDV-plate (LABCYTE, LP-0200). A 3 fold, 11-point dilution was performed. • 2.2 Cells were treated with compounds by plate reformat Echo software and spun for 1 min at 1000 rpm. Then incubated at 37° C. for 24 hrs in a CO2 incubator.
• 3.1 The plates were removed from the incubator and allowed to equilibrate to room temperature, at least 30 minutes. • 3.2 CellTiter-Glo® 2.0 Reagent (Promega, G9242) was added (25 μL) to the assay plates and spun for 1 min at 1000 rpm. Then allowed to stand for about 20 minutes before reading luminescence signal on Envision. • 3.3 The IC50 calculations were determined with a nonlinear fit, variable slope (four parameters) log(inhibitor) vs. response model using GraphPad PRISM.

[2] = test system: HT-1080 fibrosarcoma cells; assay: HT-1080 single-concentration cell viability screen (Cell Titer Glo); format: cell-based; conditions: 10 μM compound, 48 hours, duplicate, fraction of control
Excerpt: To identify potential covalent inhibitors of GPX4, we screened a panel of 294 diverse small molecules from the Enamine covalent inhibitor library (Catalog No. CSL-10480-0-Z-10, Enamine, Monmouth, NJ). Each compound contains either a chloroacetamide or acrylamide moiety theoretically capable of forming a covalent bond with a selenocysteine. The small molecule compounds were selected for a diversity of backbone structures. The screening protocol used the cell viability assay Cell Titer Glo® (available from Promega, Madison, WI). Cell Titer Glo® is a luminescent cell viability that determines the number of viable cells in culture by quantifying ATP, which indicates the presence of metabolically active cells. Briefly, HT-1080 fibrosarcoma cells were plated 24 hours prior to treatment with 10 µM of each compound in the screening panel. Cell Titer Glo® was used to read out cell viability after 48 hours of compound exposure. Data was collected in duplicate.
To determine whether similar molecules could offer other starting points for a medicinal chemistry campaign, we screened 95 additional compounds that contain a similar base structure to that of 8216. Briefly, HT-1080 fibrosarcoma cells were treated with 10 µM of a compound for 48 hours and cell viability was measured by Cell Titer Glo®. Data was collected in duplicate. […]

| Compound | IC50 [1] | Average relative cell viability [2] |
| --- | --- | --- |
| COc1cccc(N(C(=O)CCl)c2nc(-c3ccc(Br)cc3)cs2)c1 [Compound B17, N-[4-(4-bromophenyl)thiazol-2-yl]-2-chloro-N-(3-methoxyphenyl)acetamide] | 0.1 to 1 µM | – |
| C#CC(=O)N(c1cc(OC)cc(OC)c1)c1nc(-c2ccc(Br)cc2)cs1 [Compound B19, N-[4-(4-bromophenyl)thiazol-2-yl]-N-(3,5-dimethoxyphenyl)prop-2-ynamide] | 0.01 to 0.1 µM | – |
| O=C(CCl)N(c1cc(Cl)cc(Cl)c1)c1nc(-c2ccc(Br)cc2)cs1 [Compound B20, N-[4-(4-bromophenyl)thiazol-2-yl]-2-chloro-N-(3,5-dichlorophenyl)acetamide] | 1 to 10 µM | – |
| Cc1cc(C)cc(N(C(=O)CI)c2nc(-c3ccc(Br)cc3)cs2)c1 [Compound B21, N-[4-(4-bromophenyl)thiazol-2-yl]-N-(3,5-dimethylphenyl)-2-iodo-acetamide] | 0.01 to 0.1 µM | – |
| C#CC(=O)N(c1cc(Cl)cc(Cl)c1)c1nc(-c2ccc(Br)cc2)cs1 [Compound B22, N-[4-(4-bromophenyl)thiazol-2-yl]-N-(3,5-dichlorophenyl)prop-2-ynamide] | 0.01 to 0.1 µM | – |
| C=C(F)C(=O)N(c1cc(C)cc(C)c1)c1nc(-c2ccc(Br)cc2)cs1 [Compound B23, N-[4-(4-bromophenyl)thiazol-2-yl]-N-(3,5-dimethylphenyl)-2-fluoro-prop-2-enamide] | > 10 µM | – |
| COc1cc(Cl)cc(N(C(=O)CCl)c2nc(-c3ccc(Br)cc3)cs2)c1 [Compound B24, N-[4-(4-bromophenyl)thiazol-2-yl]-2-chloro-N-(3-chloro-5-methoxy-phenyl)acetamide] | 0.1 to 1 µM | – |
| O=C(CCl)N(c1cc(F)cc(F)c1)c1nc(-c2ccc(Br)cc2)cs1 [Compound B25, N-[4-(4-bromophenyl)thiazol-2-yl]-2-chloro-N-(3,5-difluorophenyl)acetamide] | > 10 µM | – |
| C#CC(=O)N(c1cc(Cl)cc(OC)c1)c1nc(-c2ccc(Br)cc2)cs1 [Compound B26, N-[4-(4-bromophenyl)thiazol-2-yl]-N-(3-chloro-5-methoxy-phenyl)prop-2-ynamide] | 0.01 to 0.1 µM | – |
| Cc1cc(C)cc(N(C(=O)CF)c2nc(-c3ccc(Br)cc3)cs2)c1 [Compound B27, N-[4-(4-bromophenyl)thiazol-2-yl]-N-(3,5-dimethylphenyl)-2-fluoro-acetamide] | > 10 µM | – |
| Cc1cc(C)cc(N(C(=O)C2CO2)c2nc(-c3ccc(Br)cc3)cs2)c1 (centres unmarked) [Compound B28, N-[4-(4-bromophenyl)thiazol-2-yl]-N-(3,5-dimethylphenyl)oxirane-2-carboxamide] | > 10 µM | – |
| O=C(CCl)N(Cc1ccccc1)c1nc(-c2ccc(Cl)cc2)cs1 [Compound Z56837054] | – | 0.001992 |
| CCOC(=O)c1sc(N(Cc2ccccc2)C(=O)CCl)nc1C [Compound Z56837076] | – | 0.004698 |
| O=C(CCl)N(CCc1ccccc1)Cc1ccccc1 [Compound Z56891378] | – | 0.001872 |
| O=C(CCl)N(Cc1ccccc1)c1nc(-c2ccc(Br)cc2)cs1 [Compound Z56926666] | – | 0.008622 |
| O=C(CCl)N(Cc1ccccc1)c1nc(-c2ccc(F)cc2)cs1 [Compound Z56946047] | – | 0.000624 |
| Cc1cccc(N(Cc2ccccc2)C(=O)CCl)c1 [Compound Z57052885] | – | 0.002244 |
| O=C(CCl)N(Cc1ccco1)C1=CCCCC1 [Compound Z89264994] | – | 0.01228 |
| O=C(CCl)N(Cc1cccs1)C1CCS(=O)(=O)C1 (centres unmarked) [Compound Z90122115] | – | 0.05782 |

| Compound | IC50 [1] | Average relative cell viability [2] |
| --- | --- | --- |
| O=C(CCl)N(Cc1ccccc1)Cc1ccco1 [Compound Z108565162] | – | 0.005394 |
| COCCN(Cc1ccccc1)C(=O)CCl [Compound Z147647648] | – | 0.1007 |
| O=C(CCl)N(Cc1ccccc1)c1nc2c(s1)CCCC2 [Compound Z147647668] | – | 0.005838 |
| Cc1ccc2sc(N(Cc3ccccc3)C(=O)CCl)nc2c1C [Compound Z147647684] | – | 0.006576 |
| O=C(CCl)N(Cc1cccs1)CC1CCCO1 (centres unmarked) [Compound Z147647920] | – | 0.04392 |
| O=C(CCl)N(Cc1ccc(F)cc1)c1nc(-c2ccccc2)cs1 [Compound Z147647938] | – | 0.000936 |
| O=C(CCl)N(Cc1ccco1)C1CCS(=O)(=O)C1 (centres unmarked) [Compound Z147652330] | – | 0.7459 |
| O=C(CCl)N(Cc1ccccc1)c1ccccc1 [Compound Z199424090] | – | 0.00039 |
| O=C(CCl)N(Cc1ccccc1)Cc1ccc(F)cc1 [Compound Z381549666] | – | 0.001836 |
| Cc1cc(CN(C(=O)CCl)C2CCCC2)c2ccccc2n1 [Compound Z1562139496] | – | 0.000174 |
| O=C(CCl)N(Cc1ccccc1)CC1(O)CCOC1 (centres unmarked) [Compound Z1687602192] | – | 0.1445 |
| CC#CC(=O)N(Cc1ccc(-n2cncn2)cc1)C1CC1 [Compound Z2020497058] | – | 1.089 |
| CN(Cc1cnc(N(C)C)nc1)C(=O)CCl [Compound Z2596884436] | – | 0.4026 |
| O=C(CCl)N(Cc1nc2ccsc2c(=O)[nH]1)C1CC1 [Compound Z3217399415] | – | 1.255 |
| CN(Cc1nc2c(cnn2C)c(=O)[nH]1)C(=O)CCl [Compound Z3337549802] | – | 1.034 |
| O=C(CCl)N(Cc1cnn(-c2ccccc2)c1)C1CC1 [Compound Z3629871044] | – | 0.001764 |
| CC1(N(Cc2ccc3c(c2)OCO3)C(=O)CCl)CCCC1 [Compound Z3766260223] | – | 0.002238 |
| O=C(CCl)N(Cc1cccs1)C1Cc2ccccc2C1 [Compound Z3766262414] | – | 0.5481 |
| Cn1cc(CN(C(=O)CCl)c2ccc(F)cc2)cn1 [Compound Z3766264621] | – | 0.02152 |

| Compound | IC50 [1] | Average relative cell viability [2] |
| --- | --- | --- |
| O=C(CCl)N(Cc1nc(C2CCCCCC2)no1)C1CC1 [Compound Z3766269910] | – | 0.002904 |
| CCN1CCCC(CN(C)C(=O)CCl)C1c1cnn(C)c1 (centres unmarked) [Compound Z3766270794] | – | 0.003474 |
| CC1(C)CC(N(Cc2ccccc2)C(=O)CCl)C(C)(C)O1 (centres unmarked) [Compound Z3766271747] | – | 0.005616 |
| O=C(CCl)N(Cc1ccns1)c1ccc2c(c1)OCCO2 [Compound Z3837046637] | – | 0.00972 |
| COc1cccc(CN(CC2CCCO2)C(=O)CCl)c1F (centres unmarked) [Compound Z3837050450] | – | 0.5148 |
| Cc1cc(CN(C(=O)CCl)c2ccc(F)cc2)nn1C [Compound Z3837055210] | – | 0.001584 |
| Cc1cc(F)ccc1N(Cc1ccnn1C(C)C)C(=O)CCl [Compound Z3837096793] | – | 0.1701 |
| Cc1cc(CN(Cc2ccn(C)n2)C(=O)CCl)ccc1F [Compound Z3837152585] | – | 0.007686 |
| Cc1csc(CN(C(=O)CCl)c2cccc(F)c2C)n1 [Compound Z3837197646] | – | 0.01316 |
| O=C(CCl)N(Cc1cc(F)ccc1F)CC1CCOCC1 [Compound Z3837255186] | – | 0.1331 |
| O=C(CCl)N(Cc1ccc(Cn2cccn2)cc1)CC1CC1 [Compound Z3837267295] | – | 0.002112 |
| CC(C)n1nccc1CN(CC1CCCC1)C(=O)CCl [Compound Z3837300268] | – | 0.00828 |
| Cc1ccc(CN(Cc2cnn(C)c2)C(=O)CCl)cc1C [Compound Z3837366035] | – | 0.531 |
| COc1ccc(CN(CC2CC(C)=NO2)C(=O)CCl)cc1 (centres unmarked) [Compound Z3837506617] | – | 0.3267 |
| COC1(CN(Cc2ccn(C)n2)C(=O)CCl)CCCCC1 [Compound Z3837644318] | – | 0.7407 |
| CCn1cc(CN(C(=O)CCl)C2CC2)c(C)n1 [Compound Z3887631385] | – | 0.7938 |
| O=C(CCl)N(Cc1ccccc1O)Cc1ccccc1O [Compound Z3952174992] | – | 0.1517 |
| N#Cc1ccc(CN(C(=O)CCl)C2CC2)c(F)c1 [Compound Z3952175125] | – | 0.8876 |
